Assay results as given in patent publication US12245576B2, “Method for genetic manipulation of sap-feeding insects” (The Regents of the University of California, priority 2018, dated 2025).
“And” between values parts separate entries of the source, which are not always exact repeats. Equal entries are not always repeated. Where two headings read alike, the source gives them in different places.

Tests used:
leaf-discs [1] = experiment: DMSO spray and dips, tolerance by leaf-discs
Source text: There was no surface sterilization pretreatment; (2) discs were placed on GB+GBV agar plates; (3) disc were sprayed using a Preval Atomizer with 20% DMSO or water (control); (4) some plates were allowed to dry overnight in the hood. […] Plates were covered with two fabric screens. […] Plates were covered with one fabric screen.
(§1) There was no surface sterilization pretreatment; (2) discs were dipped several times in 20% DMSO, 8% DMSO or water (control). Discs were allowed to dry for a short time in the hood. […] Plates were covered with two fabric screens. […] Plates were covered with one fabric screen.

Brassica leaf-discs = experiment: Phytohormone treatment, calli and root production from Brassica leaf-discs
Method: (§2) • 1. Leaf-discs (2.7-cm in diameter) were cut from Brassica leaves (Leaf #2, leaf #3) or eggplant leaves (see above). • 2. […] The discs were placed in Incubator B (higher humidity, higher light). Plates were covered with two fabric screens. • 4.

eggplant leaf-discs = experiment: Phytohormone treatment, root production from eggplant leaf-discs
Method: as §2

plant-derived fungi [2] = experiment: Surface sterilization of leaves/leaf-discs with EtOH and sodium hypochlorite, control of fungi
Source text: Plates were covered with two fabric screens. […] Plates were covered with one fabric screen.

leaf-discs [3] = system: leaf-discs
Method: Protocol 1: Ethanol and sodium hypochlorite: The method comprised the following steps: (1) whole leaves (Leaf 2 or leaf 3) were excised from plants; (2) leaves were dipped in 500 ml of 70% EtOH for 10-20 sec; (3) leaves were immersed in 500 ml of 0.01%, 0.06% or 0.24% NaClO for varying periods of time (1-20 min) with and without agitation of the liquid; (4) leaves were washed three to four times in distilled water (500-ml) each; (5) leaves were patted dry with paper towels; and (6) discs are cut from these pretreated leaves.
Protocol 2: Ethanol and sodium hypochlorite: The method comprised the following steps: (1) leaf-discs (2.5-cm in diameter) were cut from leaf 2 (11.5-cm long) or leaf 3 from a 6-wk-old plants; (2) Discs were dipped in 500 ml of 70% EtOH for 10-20 sec; (3) Discs were immersed in 500 ml of 0.01%, 0.06% or 0.24% NaClO for varying periods of time (1-20 min) with and without agitation of the liquid; (4) Discs were washed three to four times in distilled water (500-ml) each; (5) Discs were patted dry with paper towels; (6) Discs were placed on GB+GBV agar plates, covered with a mesh lid, sealed with parafilm, and incubated agar side up; (7) In some experiments, GB-GBV plates were initially incubated agar side down to encourage root growth into the media. […]

plant-derived fungi [4] = experiment: DMSO/miconazole dips, control of fungi on leaf-discs; conditions: dipping of leaf-discs in 8% DMSO and 5 μg/ml miconazole
Method: as §1, with “screen. In most experiments both incubators were used; […].” for “screen.”

Compound: C[S+](C)[O-] [DMSO, dimethyl sulfoxide]
- damage to leaf-discs (leaf-discs [1]; dipping into 8% DMSO): does not cause leaf-disc damage
- damage to leaf-discs (leaf-discs [1]; dipping into 20% DMSO): does not cause leaf-disc damage
- damage to leaf-discs (leaf-discs [1]; direct spraying with 20% DMSO, two types of atomizers): causes extensive damage

Compound: O=C(O)Cc1cccc2ccccc12 [NAA, Napthalene Acetic Acid]
- Roots first detected (Brassica leaf-discs; 0.1 mg/L NAA): 5 days
- % plates with calli (Brassica leaf-discs; 1 mg/L NAA): 67%
- roots per site (Brassica leaf-discs; 1 mg/L NAA, day 4): 1-3 roots per site and 1 roots per site and 1-2 roots per site
- roots per site (Brassica leaf-discs; 1 mg/L NAA, day 5): 1-3 roots per site and 1-2 roots per site
- % plates with calli (Brassica leaf-discs; 10 mg/L NAA): 100%
- Calli first day detected (Brassica leaf-discs; 10 mg/L NAA in GB + GBV, Incubator B): 3 days
- number of root sites per disc (Brassica leaf-discs; 10 mg/L NAA, day 4, discs 142B-1 to -3): 1 sites
- roots per site (Brassica leaf-discs; 10 mg/L NAA, day 5): 2 per site and 1-3multiple per site and 1-3 per site
- plates with roots (Brassica leaf-discs; NAA 0.1 mg/L, day 5): ⅔
- plates with roots (Brassica leaf-discs; NAA 1 mg/L, by day 4): all three
- plates with roots (Brassica leaf-discs; NAA 10 mg/L, by day 4): all three
- root sites and roots per site detected (Brassica leaf-discs; NAA 0.1, 1.0 and 10 mg/L): Multiple root sites and multiple roots per site
- effect on production of roots from Brassica leaf-discs (Brassica leaf-discs; NAA 0.1, 1.0 and 10 mg/L in GB+GBV): enhanced and accelerated the production of roots
- production of roots from eggplant leaf-discs (eggplant leaf-discs; NAA 0.1, 1.0 and 10 mg/L, within 5 d): did not produce of roots

Compound: [Na+].[O-]Cl [NaClO, sodium hypochlorite]
- time for which appearance of fungi is prevented (plant-derived fungi [2]; prewashing intact leaves with 70% EtOH and 0.24% NaClO, then cutting discs): 19 days
- slowing of first appearance of fungi on agar plates (plant-derived fungi [2]; prewashing leaves or leaf-discs with 70% EtOH and 0.01% NaClO): 1 to 2 days
- slowing of first appearance of fungi on agar plates (plant-derived fungi [2]; prewashing with 70% EtOH and 0.06% NaClO): 1 to 2 days
- damage to intact leaves or leaf-discs (leaf-discs [3]): No damage was evident

Compound: Clc1ccc(COC(Cn2ccnc2)c2ccc(Cl)cc2Cl)c(Cl)c1 (stereo not drawn) [miconazole]
- slowing of growth of plant-derived fungi (plant-derived fungi [4]): 10 to 12 days

Compound: Indole butyric acid [IBA]
- Calli first day detected (Brassica leaf-discs): 4 days and 5 days
- Roots first detected (Brassica leaf-discs): 5 days
- time in which leaf-discs produced roots (Brassica leaf-discs): 5 to 6 days
- detection of roots (Brassica leaf-discs; 1.0 mg/L IBA): occasionally detected
- number of root sites per disc (Brassica leaf-discs; 2.5 mg/L IBA, day 5): 1 site
- roots per site (Brassica leaf-discs; 2.5 mg/L IBA, day 5): 1 root
- % plates with calli (Brassica leaf-discs; 5 mg/L IBA): 67% and 100%
- Roots first detected (Brassica leaf-discs; 5 mg/L IBA): 5 days
- number of root sites per disc (Brassica leaf-discs; 5 mg/L IBA, day 5): 2 sites
- roots per site (Brassica leaf-discs; 5 mg/L IBA, day 5): 3-4 roots per site
- % plates with calli (Brassica leaf-discs; 7.5 mg/L IBA): 100%
- Roots first detected (Brassica leaf-discs; 7.5 mg/L IBA): 6 days
- % plates with calli (Brassica leaf-discs; 10 mg/L IBA): 100%
- Roots first detected (Brassica leaf-discs; 10 mg/L IBA): 5 days
- roots per site (Brassica leaf-discs; 10 mg/L IBA, day 5): 1-4 roots per site and 1 root per site roots per site
- number of root sites per disc (Brassica leaf-discs; 10 mg/L IBA, day 6): 132B-2 10 sites and 132B-3 15 sites
- roots total per disc (Brassica leaf-discs; 10 mg/L IBA, day 6, disc 132B-1): > 6d 132B-1 over 41 roots total
- % plates with calli (Brassica leaf-discs; […]): 100%
- discs that formed roots (eggplant leaf-discs): one
- time after which roots formed (eggplant leaf-discs): 10 days
